# Patent publication US9549911B2, “Ginger metabolites and uses thereof” (North Carolina A&T State University, priority 2012, dated 2017)
# How the values were obtained:
# [1] = test system: human lung cancer cells H-1299; experiment: MTT growth inhibition of human cancer and normal cells (Part 2); format: cell-based; settings: Homo sapiens, NCI-H1299; H-1299, 48 h, 0 to 80 μM
# Procedure: (§1) Growth inhibition of human cancer and normal cells. Cell growth inhibition was determined by a MTT colorimetric assay. Human colon cancer cells HCT-116, human lung cancer cells H-1299, human colon fibroblast cells CCD-18Co, and human lung fibroblast cells IMR-90 were plated in 96-well microtiter plates with 3000 cells/well and allowed to attach for 24 h at 37° C. […] After the cells were cultured for 48 h, the medium was aspirated and cells were treated with 200 μL fresh medium containing 2.41 mmol/L MTT. […] The reading reflected the number of viable cells and was expressed as a percentage of viable cells in the control. Both HCT-116 and H-1299 cells were cultured in McCoy's 5A medium. CCD-18Co and IMR-90 cells were cultured in Eagle's modified essential medium (EMEM). All of the above media were supplemented with 10% fetal bovine serum, 1% penicillin/streptomycin, and 1% glutamine, and the cells were kept in a 37° C. incubator with 95% humidity and 5% CO2.
# [2] = test system: human colon cancer cells HCT-116; experiment: as above; format: cell-based; settings: Homo sapiens; HCT-116, 48 h, 0 to 80 μM
# Procedure: as §1
# [3] = Kinetic study of [6]-shogaol metabolism to M6 in liver microsomes; settings: human
# Procedure: To estimate kinetic parameters of metabolism of [6]-shogoal to major product M6 in liver microsomes from human and other species, the incubation conditions were optimized to ensure that formation rate of M6 was in the linear range in relation to incubation time and protein concentration. [6]-Shogaol (7.81, 15.63, 31.25, 62.5, 125, 250, 500, 1000, and 2000 μM) was incubated with liver microsomes from mouse (MLM), rat (RLM), dog (DLM), monkey (CyLM), and human (HLM) (0.1 mg/mL each, respectively) for 30 minutes. All incubations were performed in triplicate. The apparent Km and Vmax values were calculated from analysis of experimental data according to the Michaelis-Menten equation, and the results were graphically represented (for HLM) by an Eadie-Hofstee plot. Kinetic constants were reported as the value+/−S.E. of the parameter estimate.
# HCT-116 cells = experiment: TUNEL apoptosis assay (Part 2); format: cell-based, human; settings: HCT-116, 20 or 40 μM, 24 hours
# Procedure: (§2) HCT-116 and H1299 cells were seeded in 6-well plates at 1×10^5 cells/well and incubated at 37° C. in 5% CO2 incubator. After 24 hours, fresh media supplemented with DMSO (control), [6]-shogaol, M2, M6, or M13 metabolites (20 μM or 40 μM) were added to the wells. After 6 or 24 hours incubation at 37° C. in 5% CO2 incubator, cells were washed and pre-treated for 15 min at room temperature with a solution of 20 μg/ml proteinase K. Cells were then washed twice with phosphate buffer saline pH 7.4 (PBS) and fixed for 10 min at room temperature using 10% neutral formaldehyde solution. After 2 washes in ddH2O, cells were resuspended in 100 μL ddH2O and applied on silanized microscope slides. Slides were incubated overnight at 37° C., and washed twice with PBS. TUNEL assay was then carried out according to the manufacturer's protocol. Cells were observed under 400× power using a Zeiss microscope A1 (Thornwood, N.Y.). 10 fields per slide were evaluated, and TUNEL+ cells (with brown coloration in the nucleus) were expressed as a percentage of the total number of cells contained in a field.
# H-1299 cells = experiment: TUNEL apoptosis assay (Part 2); format: cell-based, human; settings: H-1299, 20 or 40 μM, 24 hours
# Procedure: as §2
# in vitro [4] = format: cell-based, human; settings: human
# Procedure: as §1
# [5] = Kinetic study of [6]-shogaol metabolism to M6 in liver microsomes; format: in vitro ADME, mouse; settings: mouse
# Procedure: (§3) All incubations were performed in triplicate.
# [6] = as above; format: in vitro ADME; settings: dog liver microsomes 0.1 mg/mL, 30 min
# Procedure: as §3
# in vitro [7] = format: cell-based, human; settings: human; remark: listed apart in the source
# Procedure: as §1
# [8] = Kinetic study of [6]-shogaol metabolism to M6 in liver microsomes; format: in vitro ADME, monkey; settings: cynomolgus, monkey
# Procedure: as §3
# [9] = as above; format: in vitro ADME, rat; settings: rat
# Procedure: as §3
smiles,measurement,setting,value
"CCCCCC=CC(O)CCc1ccc(O)c(OC)c1 (centres unmarked) [M6, 1-(4′-hydroxy-3′-methoxyphenyl)-4-decen-3-ol]",IC50,[1],61.3 µM
same,IC50,[2],68.8 µM
same,Vmax of M6 formation,[3],10.82 +/− 0.47 nanomoles per minute per milligram liver microsomes
same,induction of apoptosis (TUNEL) versus DMSO,HCT-116 cells,did not display any apoptotic effect
same,induction of apoptosis (TUNEL) versus DMSO,H-1299 cells,did not display any apoptotic effect
same,IC50 at 48 h,in vitro [4],> 100 µM
same,Vmax of M6 formation,[5],4.10 +/− 0.19 nanomoles per minute per milligram liver microsomes
same,Vmax of M6 formation,[6],7.33 +/− 0.43 nanomoles per minute per milligram liver microsomes
same,IC50 at 48 h,in vitro [7],> 100 µM
same,Vmax of M6 formation,[8],2.99 +/− 0.28 nanomoles per minute per milligram liver microsomes
same,Vmax of M6 formation,[9],8.19 +/− 0.48 nanomoles per minute per milligram liver microsomes
